In PubChem BioAssay (NCI):
Values joined by “and” are separate entries in the source; they are usually repeats but may differ in a detail not shown here. Equal values may be shown once.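 Each compound was tested at five concentrations against cells in 96-well plates for 48 hours. GI50 marks 50% less growth. The concentration for full growth arrest is given as TGI.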

Key:
Test in all cases: NCI tumour cell line growth inhibition, 48 h
[1] = tested on: DLD-1 colon
[2] = tested on: HOP-18 NSCLC
[3] = tested on: LXFL 529 NSCLC
[4] = tested on: M19-MEL melanoma
[5] = tested on: SNB-78 CNS
[6] = tested on: HS 578T breast
[7] = tested on: MDA-N
[8] = tested on: PC-3 prostate
[9] = tested on: XF 498 CNS

SMILES | TGI [6] | TGI [8] | GI50 [6] | GI50 [8] | further results
CC[O-].CC[O-].O=C1C(c2ccccc2)=C([O-])c2ccccc21.O=C1C(c2ccccc2)=C([O-])c2ccccc21.[Ti+4] | – | – | – | – | GI50 [1]: > 100 µM; TGI [1]: > 100 µM; GI50 [2]: > 100 µM; TGI [2]: > 100 µM; GI50 [3]: > 100 µM; TGI [3]: > 100 µM; GI50 [4]: > 100 µM; TGI [4]: > 100 µM; GI50 [5]: > 100 µM; TGI [5]: > 100 µM
c1ccc2c(c1)-c1ccccc1C2N1CC2CCC(CC2)C1 | 33.2 µM | 72.1 µM | – | – | TGI [7]: > 100 µM
COc1cccc(-c2nc3sccn3c2-c2ccnc(NCCNS(=O)(=O)c3ccccc3)c2)c1 | > 100 µM | > 100 µM | 3.7 µM | 1.68 µM | –
O=c1ccnc2c1ccc1[nH]cccc12 | – | – | – | – | TGI [1]: > 100 µM; TGI [2]: > 100 µM; TGI [3]: > 100 µM; TGI [4]: > 100 µM; TGI [5]: > 100 µM
Cc1nc2cc(N)c(F)cc2[nH]1 | – | – | – | – | TGI [1]: > 100 µM; TGI [3]: > 100 µM; TGI [4]: > 100 µM; TGI [5]: > 100 µM; TGI [9]: > 100 µM
CCOc1ccc(Nc2nc(-c3ccc4c(c3)NC(=O)CO4)cs2)cc1 | > 100 µM | 32.8 µM | 22.5 µM | 3.04 µM | –
O=S(=O)(c1ccc(N=C2NN=C(c3c[nH]c4ccccc34)CS2)cc1)N1CCOCC1 | > 100 µM | > 100 µM | 31.4 µM | 10.3 µM | –
Cc1occc1C(=S)Nc1ccc(Cl)c(/C=N/OC(C)C)c1 | 67.9 µM | 47.3 µM | – | – | TGI [7]: 45 µM
CN1CCCCCC(=N\O)/C(=N/O)CCCCC1 | > 100 µM | > 100 µM | – | – | TGI [7]: > 100 µM
COc1ccc(-c2ccc(/C=N/n3c(COc4ccc(Cl)cc4Cl)nn(CN4CCN(C)CC4)c3=S)o2)c([N+](=O)[O-])c1 | > 100 µM | 76.8 µM | 37.8 µM | 17.6 µM | –
Cc1ccc(/C=C/C(=O)c2sc(-c3cccnc3)nc2C)cc1 | – | – | – | – | TGI [1]: > 100 µM; TGI [2]: > 100 µM; TGI [4]: > 100 µM; TGI [5]: > 100 µM
NC(=N\N=C/c1cccc([N+](=O)[O-])c1)/C(N)=N\N=C/c1cccc([N+](=O)[O-])c1 | > 100 µM | > 100 µM | > 100 µM | > 100 µM | –
CCCN1CCN(c2ccc3nc(-c4ccc5nc(-c6cc(OC)ccc6OC)[nH]c5c4)[nH]c3c2)CC1 | 55.6 µM | 4.04 µM | 20.1 µM | 1.75 µM | –
O=C([O][Hg][CH2]C1COCC([CH2][Hg][O]C(=O)c2ccccc2)O1)c1ccccc1 (stereo not drawn) | 65.8 µM | 32.4 µM | 19.8 µM | 15.9 µM | –
Cn1nc(-c2ccccc2)nc1[N+](=O)[O-] | > 10 µM | > 10 µM | – | – | TGI [7]: > 10 µM
Nc1ncn(C2C=C(CO)C(O)C2O)c(=O)n1 (stereo not drawn) | – | – | – | – | TGI [1]: > 100 µM; TGI [2]: > 100 µM; TGI [3]: > 100 µM; TGI [4]: > 100 µM; TGI [5]: > 100 µM
O=C(Nc1cc[c]([Sb](=[O])([OH])[OH])cc1)c1ccccc1 | > 100 µM | > 100 µM | > 100 µM | > 100 µM | –
COc1ccc(C2=C(c3ccc(OC)c(OC)c3)C(=O)OC2)cc1 | 0.792 µM | > 100 µM | 0.255 µM | < 0.0301 µM | –

SMILES | TGI [6] | TGI [8] | GI50 [6] | GI50 [8] | further results
Cc1cccc(Cl)c1NC(=O)/C=C/c1ccccc1 | > 100 µM | > 100 µM | – | – | TGI [7]: > 100 µM
COc1ccc2c(CN3CCC[C@H]3C(=O)O)cc3cc4c(cc3c2c1)OCO4 | 48 µM | – | 11.6 µM | – | –
NC(=O)c1ccc2c(-c3ccnc(NCCCO)n3)c(-c3ccc(F)cc3)nn2c1 | > 25 µM | > 25 µM | > 25 µM | > 25 µM | –
O=C(CC12CC3CC(CC(C3)C1)C2)NCCOCCOCCOCCNC(=O)c1cc2c(o1)C(=O)c1ccccc1C2=O | 6.59 µM | 16.1 µM | 1.99 µM | 1.79 µM | –
O=C1c2cc([N+](=O)[O-])ccc2-c2cccc(F)c21 | > 100 µM | > 100 µM | – | – | TGI [7]: > 100 µM
COc1cc2c(Oc3ccc4[nH]c(C)cc4c3F)ccnc2cc1OCC1(N)CC1 | 3.29 µM | 13.4 µM | 0.759 µM | 1.36 µM | –
O=C(Nc1ccc(F)cc1F)c1cc(Br)ccc1O | 8.35 µM | 8.35 µM | 2.24 µM | 2.45 µM | –
CC(=O)Nc1c(C)ccc2c1C(=O)c1ccccc1C2=O | – | – | – | – | TGI [1]: > 100 µM; TGI [2]: > 100 µM; TGI [3]: > 100 µM; TGI [4]: > 100 µM; TGI [5]: > 100 µM
O=C(N/N=C/c1ccccc1Cl)c1ccccc1Nc1ccnc(C(F)(F)F)c1 | 7.23 µM | 9.6 µM | 1.82 µM | 1.83 µM | –
O=CN1N=C(c2ccc(Cl)cc2)CC1c1cccc(Nc2ccnc3cc(Cl)ccc23)c1 (stereo not drawn) | > 100 µM | > 100 µM | 3.23 µM | 1.69 µM | –
CCN=c1cc2sc3cc(NCC)c(C)cc3nc-2cc1C | 15.2 µM | 4.72 µM | 2.14 µM | 0.133 µM | –
CN(C)CC/C(=N\Nc1ccccc1)c1ccccc1 | – | – | – | – | TGI [1]: > 100 µM; TGI [2]: > 100 µM; TGI [4]: 77.9 µM; TGI [5]: 89.7 µM; TGI [9]: 23.4 µM
COc1ccc2c(c1)OC1=C(C(=O)OC1)C2c1cc(OC)c(OC)c(OC)c1 (stereo not drawn) | > 100 µM | > 100 µM | 0.324 µM | 0.391 µM | –
Nc1cc(-c2cccc(OC(F)(F)F)c2)nc2ccc(N3CCCC3)cc12 | 13.2 µM and > 100 µM | 26.9 µM and > 100 µM | 0.051 µM and 0.0484 µM and 0.0347 µM | 0.0455 µM and 0.0429 µM and 0.0372 µM | –
CSc1nc(NC(=O)O)c(N(C(C)=O)C(=O)O)c(=O)n1C | – | – | – | – | TGI [1]: > 100 µM; TGI [3]: > 100 µM; TGI [4]: > 100 µM; TGI [5]: > 100 µM; TGI [9]: > 100 µM
O=C1NC(=S)NC(=O)C1=Cc1cccc2cc3ccccc3cc12 | > 25.6 µM | 3.3 µM | – | – | TGI [7]: 4.69 µM
Cc1cc(-c2nnc(N)nc2-c2ccc(F)cc2)cc(Cl)n1 | > 100 µM | > 100 µM | > 100 µM | 76.9 µM | –
